One compound from patent US20250082630A1, “METHODS OF TREATING BRAIN TUMOURS AND NEUROBLASTOMAS” (AstraZeneca AB, priority 2021, published 2025) can be followed below.

For one assay, the system named is DLD1 cells. The assay can be described thus: PARP proliferation assay (7 day compound dosing), WT DLD1. It counts as cell-based. To be noted: Homo sapiens, DLD-1, 168 h, read-out: WT DLD-1 prolif. 7 d IC50. How it is done:
DLD1 and BRCA2 (−/−) DLD1 cells were harvested to a density of 5000 cells/ml and 2.5E4 cells/ml respectively in complete media, 40 μL/well seeded into 384-well plates (Greiner, Kremsmunster, Austria; 781090) using a Multidrop Combi then incubated at 37° C., 5% CO2 overnight. Next day (Day 1) using a Multidrop Combi add sytox green (5ul, 2 uM) and saponin (10 ul, 0.25% stock) to a day 0 plate, seal the plate using a black adhesive lid and incubate for >3 h at it. Cells were imaged using Cell Insight (Thermo Fisher) fitted with a 4x objective. Test compounds are added using an Echo 555 and placed in incubator maintained at 37° C., 5% CO2 and incubated for 7 days. On Day 8 add sytox green (5ul, 2 uM) and then saponin (10 ul, 0.25% stock) to plates, seal the plate using a black adhesive lid and incubate for >3 h at it. Read all cells on the Cell Insight with 4× Objective. The rate of proliferation is determined in Genedata by assessing the total cell number output from the Cell Insight for Day 0 and Day 8 plates.

A further assay has as its system U87 IDH1 wt. Briefly: Combination assay PARP inhibitor with TMZ, U87 IDH1 wt. It counts as cell-based. How it is done: (§1) To evaluate the activity and potency of the PARP inhibitors described herein in combination with the standard of care chemotherapy Temozolamide (TMZ), ionizing radiation (IR) and the emerging chemotherapy VAL-083, U87, SJG2 and BT245 glioblastoma cells were assayed. Parental U87 cell lines were obtained from the AstraZeneca Global Cell Bank in Alderley Park, UK and the isocistrate dehydrogenase 1 mutant cell line (IDH1 mt R1 32H) was licensed in from ATCC. The SJ-G2 (ATRX mutant) and BT245 (H3K27M mutant) cell lines were obtained from The Research Institute of the McGill University Health Centre, Montreal, QC H4A 3J1, Canada. IDH1R132 mutation was induced in SJG2 cell line to generated isogenic pair (SJG2 IDH1mt and SJG2 IDH1 wt). […]
(§2) For the nuclear count end point assay, cells were fixed for ˜15 minutes (min) by the addition of 50 μl per well of Formaldehyde (Sigma-Aldrich F8775). […] The images were acquired using CellInsight CX5 (Thermo Fisher) and analysed by measuring the total number of hoechst stained nuclei. The number of nuclei (% confluence) of the drug treated wells were normalised to the DMSO control and the growth inhibition was calculated using the combenefit software (Di Veroli et al., 2016).

A further assay has as its system U87 IDH1mt ATRXwt. The assay can be described thus: Monotherapy treatment, U87 IDH1mt ATRXwt. It counts as cell-based. Particulars: read-out: Compound 20 IC50. On the procedure:
as §1, §2

A further assay relates to U87MG xenograft. Type of assay: in vivo, female Nude mice. Particulars: Compound 20 3 mg/kg QD in combination with TMZ 6.25 mg/kg QD on days 1-5 and 29-33, PO. How it is done:
U87MG cells (2.5 million in serum-free MEM medium) were implanted subcutaneously (SC) into the dorsal flank of female Nude mice (weight greater than 18 g). Tumours were measured (length x width) two times weekly by bilateral Vernier calliper measurements and tumour volume was calculated using elliptical formula (π/6×width×width×length). Animal bodyweight and tumour condition were monitored throughout the study. Mice were randomised into treatment groups when mean tumour volume reached approximately 0.2 cm^3.
Animals were treated orally (PO) from the day after the randomisation. Control animals were treated with vehicle (water/methane sulfonic acid (MSA) pH3-3.2) once daily for 10 days (QD×10). PARP inhibitor in water/MSA pH3-3.2 was dosed in the monotherapy and combination groups at 3 mg/kg QD×10 or QD×33, respectively. Temozolomide (TMZ) in OraPlus Perrigo was dosed in the monotherapy group at 25 mg/kg QD on days 1-5 and 29-33, and in monotherapy and combination group at 6.25 mg/kg QD on days 1-5 and 29-33.
Tumour growth inhibition from start of treatment was assessed by comparison of the mean change in tumour volume (TV) of the control and treated groups and represented as percent tumour growth inhibition (TGI, when tumour volume (TV) >starting TV) or tumour regression (reg, when TV<starting TV). Statistical significance was evaluated using a one-tailed t test. Statistical significance is indicated as follows: *p:0.05, **p:0.01, ***p:0.001.

The test system of assay [1] is PARylation in BT245 H3K27M paediatric glioma model. The assay can be described thus: PARylation inhibition in paediatric glioma model. Type of assay: cell-based.
The test system of assay [2] is U87 IDH1 wt and IDH1 mt isogenic pairs. Briefly: Combination assay PARP inhibitor with VAL-083, U87 isogenic pairs. Type of assay: cell-based. How it is done: as §1, §2
Assay [3] deals with BT245 H3K27M paediatric glioma cells. The assay can be described thus: Combination assay PARP inhibitor with ionizing radiation (colony formation). Particulars: 0.9 Gy, multiple doses of the inhibitor. It counts as cell-based. On the procedure: DMSO served as a vehicle control. […] Next, cells were fixed and stained using the Sulforhodamin B acid form (SRB) [Sigma, 341738-5g] reconstituted in 1% Acetic Acid as the stain is added straight after fixation without any washing step which limits cell detachment. Plates with stained colonies were scanned with the GelCount colony counter (Oxford OPTRONIX) at 600 dpi resolution. Colony formation was scored by quantifying the total optical density measured with ImageJ software, using a 24-well plate Region of Interest (ROI) mask (CFU, colony formation units). Data analysis was performed by normalisation on the vehicle treated of the respective plate set as =100. […] In the represented plots error bars are mean±SD.

The subject of assay [4] is SJ-G2 IDH1 wt and IDH1mt isogenic pairs. The assay can be described thus: Combination assay PARP inhibitor with VAL-083, SJ-G2 isogenic pairs. It counts as cell-based. How it is done:
as §1, §2

A further assay has as its system SJ-G2 IDH1mt ATRXmt. The assay can be described thus: cells. To be noted: SJ-G2, read-out: Compound 20 IC50. On the procedure: as §1, §2
The test system of assay [5] is SJ-G2 IDH1 wt and IDH1mt isogenic pairs. The assay can be described thus: Combination assay PARP inhibitor with TMZ, SJ-G2 isogenic pairs. Type of assay: cell-based. On the procedure:
as §1, §2

Molecules are shown by their SMILES. Some results are limits rather than exact numbers.

For the compound `CNC(=O)c1ccc(N2CCN(Cc3ccc4nc(C)c(=O)[nH]c4c3F)CC2)c(F)n1` [Example 20, 6-fluoro-5-[4-[(5-fluoro-2-methyl-3-oxo-4H-quinoxalin-6-yl)methyl]piperazin-1-yl]-N-methyl-pyridine-2-carboxamide], the IC50 in the assay with DLD1 cells was more than 30000 nM; in the assay with U87 IDH1mt ATRXwt it was more than 100000 nM; in the assay with SJ-G2 IDH1mt ATRXmt, 1750 nM. Moreover, the “concentration at which Compound 20 synergises with TMZ” value with U87 IDH1 wt came out at 10 µM. Further, in the assay with U87MG xenograft, the tumour regression was 95%. Moreover, the tumours regressed with U87MG xenograft is given as 8/8. Further, the “IC95 for PARylation inhibition” value in [1] is 4 nM. Also, the “combination effect with VAL-083” value in assay [2] is recorded as “synergises with VAL-083”; in assay [4] (SJ-G2 IDH1 wt and IDH1mt, ATRX mutant), “enhanced combination benefit”. For the same compound, the “combination effect with ionizing radiation” value in assay [3] is “enhanced combination benefit”. In addition, in assay [4] (1 μM Compound 20, ATRX mutant cell lines), the “activity in the absence of VAL-083” value is reported as “has activity”. Moreover, the “lowest PARP inhibitor concentration significantly enhancing the TMZ effect” value in assay [5] is given as 10 nM.
